Data set [1] concerns the target T1, Short transient receptor potential channel 5 (Homo sapiens, UniProt Q9UL62).
T1 sequence (Q9UL62 whole entry): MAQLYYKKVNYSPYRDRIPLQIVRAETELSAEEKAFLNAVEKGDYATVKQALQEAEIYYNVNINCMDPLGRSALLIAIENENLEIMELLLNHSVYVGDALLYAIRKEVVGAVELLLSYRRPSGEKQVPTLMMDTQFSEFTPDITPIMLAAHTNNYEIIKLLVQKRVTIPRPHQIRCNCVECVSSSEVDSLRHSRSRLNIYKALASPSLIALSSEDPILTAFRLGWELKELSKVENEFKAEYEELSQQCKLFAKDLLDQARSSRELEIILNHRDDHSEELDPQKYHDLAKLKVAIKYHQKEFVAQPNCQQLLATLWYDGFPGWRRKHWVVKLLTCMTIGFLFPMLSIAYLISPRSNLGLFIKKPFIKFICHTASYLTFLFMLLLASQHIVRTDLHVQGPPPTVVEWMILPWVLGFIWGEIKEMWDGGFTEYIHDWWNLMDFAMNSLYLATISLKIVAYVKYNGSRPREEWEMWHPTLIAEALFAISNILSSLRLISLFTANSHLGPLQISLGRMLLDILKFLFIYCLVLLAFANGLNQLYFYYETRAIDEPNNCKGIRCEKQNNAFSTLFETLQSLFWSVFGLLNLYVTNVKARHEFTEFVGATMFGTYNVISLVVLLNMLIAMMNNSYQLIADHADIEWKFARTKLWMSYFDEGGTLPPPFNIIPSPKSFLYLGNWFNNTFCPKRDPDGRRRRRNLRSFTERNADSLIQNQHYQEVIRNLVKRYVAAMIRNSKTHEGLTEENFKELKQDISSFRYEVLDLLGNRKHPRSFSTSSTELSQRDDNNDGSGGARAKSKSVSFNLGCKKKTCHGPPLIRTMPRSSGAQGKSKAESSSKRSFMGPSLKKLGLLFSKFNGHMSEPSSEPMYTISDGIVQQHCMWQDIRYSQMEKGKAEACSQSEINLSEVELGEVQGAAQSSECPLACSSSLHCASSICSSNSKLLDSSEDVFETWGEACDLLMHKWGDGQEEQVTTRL
The experiment in a line: Inhibition of human TRPC5 expressed in HEK293T cells assessed as intracellular calcium influx by measuring Ca2+ flow inhibition after 30 mins by Fluo-4 AM dye based fluorescence analysis. It counts as cell-based.

Data set [2] deals with HEK-293T. The experiment in a line: Cytotoxicity against human HEK293T cells expressing human TRPC5 assessed as reduction in cell viability at 100 uM incubated for 24 hrs by MTS assay. It counts as toxicity, cell-based. For orientation: Formazan colour is commonly taken as a measure of viable cells.
For data set [3], the target named is T2, Short transient receptor potential channel 5 (Homo sapiens) (UniProt Q9UL62).
T2 sequence (whole entry): T1 sequence (Q9UL62 whole entry)
The experiment in a line: Inhibition of human TRPC5 expressed in HEK293T cells assessed as intracellular calcium influx at 30 uM measured after 30 mins by Fluo-4 AM dye based fluorescence analysis. It counts as cell-based. In general terms: A change in cytosolic calcium serves as a functional read-out for many receptors and channels.

The test system of data set [4] is HEK-293T. Kind of data set: Cytotoxicity against human HEK293T cells expressing human TRPC5 assessed as cell death incubated for 24 hrs by MTS assay. It is filed as toxicity, cell-based.

Activity calls are given as the source filed them. No cut-off for these calls is given here.

As a reminder, the IC50 is the concentration that inhibits the measured activity by half. Regarding `c1ccc(Cn2c(NCc3ccco3)nc3ccccc32)cc1`, the IC50 in data set [1] worked out at 14.9 µM.

Consider `O=C(Cc1cccc(F)c1)NCc1nnc2ccc(-c3ccc(F)cc3)nn12`, for which, in data set [1], the IC50 was 10.2 µM. Moreover, the Activity result in the data set on HEK-293T [2] is given as “Non-Toxic”. Moreover, in data set [3], the inhibition entry is “Active”.

As to `CC(c1ccccc1)n1c(CCCO)nc2ccccc21` (stereo unspecified), the inhibition result in data set [3] is “Active”. Moreover, the Activity result with HEK-293T [4] was “Toxic”.

(Values after ChEMBL document CHEMBL5365522, “Discovery of potential novel TRPC5 inhibitors by virtual screening and bioassay” (Bioorg Med Chem, 2023).)
